Earlier results as cited in patent US20240416337A1, “Quantitation of chemical, biological and biochemical analytes on a flow assay using a smartphone” (Real-Time Analyzers, Inc., priority 2023, published 2024).

Assays:
[1] = blood compared with saliva
[2] = in vivo

## C=CC[C@@H]1/C=C(\C)C[C@H](C)C[C@H](OC)[C@H]2O[C@@](O)(C(=O)C(=O)N3CCCC[C@H]3C(=O)O[C@H](/C(C)=C/[C@@H]3CC[C@@H](O)[C@H](OC)C3)[C@H](C)[C@@H](O)CC1=O)[C@H](C)C[C@@H]2OC [tacrolimus]
[1]
  tacrolimus concentration in the blood: modestly higher than in saliva
other
  ionization at physiological pH: does not ionize
[2]
  passage through salivary glands into the oral cavity: readily passes through salivary glands
